{
  "source": "ChEMBL document CHEMBL1201862",
  "about": "“PubChem BioAssay data set” (2004)",
  "key": {"[1]": {"assay": "Luminescent dose response cell-based high throughput screening assay for inhibitors of the Janus kinase 2 mutant JAK2V617F. [Related pubchem assays: 1446 (Primary screen.), 1521 (Confirmation assay.), 1486 (Counter screen.)]", "format": "functional"}, "[2]": {"assay": "Luminescence Cell-Based Dose Confirmation HTS to Identify Activators of 5'UTR Stem-Loop Driven Alpha-Synuclein mRNA Translation in H4 Neuroglioblastoma Cells. [Related pubchem assays: 1829 (Project Summary), 1814 (Primary HTS)]", "format": "functional"}, "[3]": {"assay": "Luminescence Cell-Based Dose Response HTS to Identify Activators of Luciferase Translation or Activity in H4 […] Cells. [Related pubchem assays: 1829 (Project Summary), 1814 (Primary HTS)]", "format": "functional"}, "H4": {"system": "H4", "assay": "Luminescence Cell-Based Dose Response HTS to Identify Activators of 5'UTR Stem-Loop Driven Prion Protein mRNA Translation in H4 Neuroglioblastoma Cells. [Related pubchem assays: 1829 (Project Summary), 1814 (Primary HTS)]", "format": "functional", "details": "Homo sapiens"}, "[4]": {"assay": "cytotoxicity in HEK-293T cells, dose response, cytotoxicity control for TCR NF-kB inhibitor project, luminescence, T-cell screen hits (AID 489026);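 also: cells exposed to compound about 14 hours before the viability readout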", "format": "functional, cell-based"}, "Mucolipin-3": {"molecular_target": "T1, Mucolipin-3 (Homo sapiens, UniProt Q8TDD5)", "T1 sequence (Q8TDD5 whole entry)": "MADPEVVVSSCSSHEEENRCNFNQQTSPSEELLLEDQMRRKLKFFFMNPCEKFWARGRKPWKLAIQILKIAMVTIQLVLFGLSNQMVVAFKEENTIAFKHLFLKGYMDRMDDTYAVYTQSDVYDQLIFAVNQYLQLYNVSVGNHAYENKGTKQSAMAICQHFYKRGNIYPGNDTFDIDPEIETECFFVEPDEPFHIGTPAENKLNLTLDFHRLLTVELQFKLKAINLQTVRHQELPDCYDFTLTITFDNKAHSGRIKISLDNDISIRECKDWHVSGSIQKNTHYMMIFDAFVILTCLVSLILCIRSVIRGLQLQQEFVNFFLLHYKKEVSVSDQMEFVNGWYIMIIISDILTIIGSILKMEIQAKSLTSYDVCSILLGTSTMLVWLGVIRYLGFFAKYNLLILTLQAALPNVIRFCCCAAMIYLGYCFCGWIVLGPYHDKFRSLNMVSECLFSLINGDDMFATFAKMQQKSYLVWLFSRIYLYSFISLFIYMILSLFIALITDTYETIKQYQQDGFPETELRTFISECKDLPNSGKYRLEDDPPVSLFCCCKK", "assay": "Dose response cell-based high-throughput screening assay for agonists of the transient receptor potential channel ML3 (TRPML3). [Related pubchem assays: 1526, 1424, 1448 ]", "format": "functional"}, "Ion channel NompC": {"molecular_target": "Ion channel NompC (Danio rerio, UniProt Q7T1G6)", "assay": "Fluorescence counterscreen assay for TRPML3 agonists: dose response cell-based high-throughput screening assay to identify agonists of the transient receptor potential channel N1 (TRPN1). [Related pubchem assays: 1526, 1424, 1448 ]", "format": "functional"}, "[5]": {"assay": "Luminescence Cell-Based Dose Retest to Confirm Inhibitors of Cancer Stem Cells. [Related pubchem assays (depositor defined):AID2717, AID2721]", "format": "functional", "details": "Homo sapiens"}, "[6]": {"assay": "Fluorescence-based cell-based high throughput dose response assay for inhibitors of the interaction of nucleotide-binding oligomerization domain containing 2 (NOD2) and the receptor-interacting serine-threonine kinase 2 (RIPK2).", "format": "functional", "details": "Homo sapiens"}, "[7]": {"assay": "NIH-3T3 fibroblast cytotoxicity, dose response, cytotoxicity control, cell-based, fluorescence, Alamar Blue, secondary assay (AID 2327);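 also: NIH-3T3 mouse fibroblasts cultured with fluconazole at 8 µg/mL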", "format": "functional"}, "[8]": {"assay": "C. albicans growth with fluconazole, confirmation, fluorescence, retest (AID 2467)", "format": "functional, cell-based"}, "[9]": {"molecular_target": "Luciferin 4-monooxygenase (Photinus pyralis, UniProt P08659)", "assay": "firefly luciferase enzyme inhibitors, dose response, biochemical, luminescence (AID 1891)"}, "[10]": {"assay": "Luminescence Cell-Based Dose Confirmation HTS to Identify Inhibitors of Platelet Dense Granule Release. [Related pubchem assays: 1663 (Primary HTS), 1678 (Summary of Project)]", "format": "functional"}, "[11]": {"molecular_target": "Heat shock protein HSP 90-alpha (Homo sapiens, UniProt P07900)", "assay": "Luminescence-based dose response biochemical high throughput screening assay for inhibitors of the Heat Shock Protein 90 (HSP90). [Related pubchem assays: 1831 (Summary AID.), 1846 (Confirmation screen.), 1789 (Primary screen.)]"}, "INS1": {"system": "INS1", "assay": "beta cell apoptosis inhibitors, cytokine rescue, dose response, luminescence, retest (AID 449756);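 also: cell death triggered by IL-1 beta plus TNF-alpha plus IFN-gamma mixture; protective hits raise ATP signal compared with cytokine alone wells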", "format": "functional, cell-based", "details": "Rattus norvegicus"}, "[12]": {"assay": "microbe, parasite or virus in culture", "format": "functional", "details": "Mycobacterium tuberculosis"}, "Major prion protein": {"molecular_target": "Major prion protein (Homo sapiens, UniProt P04156)", "format": "functional, cell-based"}, "[13]": {"molecular_target": "E3 ubiquitin-protein ligase Mdm2 (Homo sapiens, UniProt Q00987)", "assay": "enhancers of MDM2-luciferase reporter signal, concentration-effect titration, project on inhibitors of MDM2 ubiquitin ligase, cellular assay, luminescent readout, 384-well plate format (AID 1394);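 also: MDM2 E3 inhibitors raise luminescence so EC50 is for signal enhancement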", "format": "functional"}, "Kallikrein-7": {"molecular_target": "Kallikrein-7 (Homo sapiens, UniProt P49862)", "assay": "Fluorescence Intensity-based biochemical primary high throughput dose response assay to identify activators of kallikrein-7 (K7) zymogen."}, "[14]": {"molecular_target": "Mitogen-activated protein kinase 10 (Homo sapiens, UniProt P53779)", "assay": "Dose response biochemical screening assay for inhibitors of c-Jun N-Terminal Kinase 3 (JNK3). [Related pubchem assays: 746 ]"}, "Estrogen receptor beta [15]": {"molecular_target": "T2, Estrogen receptor beta (Homo sapiens, UniProt Q92731)"}, "Estrogen receptor beta [16]": {"molecular_target": "T2, Estrogen receptor beta", "assay": "ERβ–SRC-3 coactivator interaction inhibitors, confirmation, orthogonal assay, biochemical, ELISA, streptavidin-HRP readout (AID 1060)"}},
  "note": "The source made the active and inactive calls.",
  "data": [
    {"compound": "O=C1C=CCC(/C=C/c2ccccc2)O1", "note": "(stereo unspecified)", "values": [
      {"measurement": "IC50", "setting": "[1]", "result": "1.31 µM (active)"},
      {"measurement": "EC50", "setting": "[2]", "result": "> 120 µM (not active)"},
      {"measurement": "EC50", "setting": "[3]", "result": "> 120 µM (not active)"},
      {"measurement": "EC50", "setting": "H4", "result": "98.3 µM (active)"},
      {"measurement": "IC50", "setting": "[4]", "result": "> 80 µM (inactive)"}
    ]},
    {"compound": "O=S(=O)(c1cnc(Cl)c(Br)c1)N1CCc2ccccc21", "values": [
      {"measurement": "IC50", "setting": "[1]", "result": "4.22 µM (active)"},
      {"measurement": "EC50", "setting": "Mucolipin-3", "result": "7.71 µM (active)"},
      {"measurement": "EC50", "setting": "Ion channel NompC", "result": "> 29.9 µM (not active)"},
      {"measurement": "AC50", "setting": "[5]", "result": "12.1 µM (inconclusive)"},
      {"measurement": "IC50", "setting": "[6]", "result": "6.35 µM (active)"}
    ]},
    {"compound": "CCCCOc1ccc(-c2cc(C(=O)NN=C(S)NCC)c3ccccc3n2)cc1", "values": [
      {"measurement": "EC50", "setting": "[7]", "result": "16.1 µM (inconclusive)"},
      {"measurement": "EC50", "setting": "[8]", "result": "1.8 µM (active)"},
      {"measurement": "EC50", "setting": "[9]", "result": "0.516 µM (active)"},
      {"measurement": "EC50", "setting": "[10]", "result": "< 0.701 µM (active)"},
      {"measurement": "IC50", "setting": "[11]", "result": "2.45 µM (active)"},
      {"measurement": "AC50", "setting": "INS1", "result": "3.2 µM (active)"}
    ]},
    {"compound": "CC1CCC(NC(=O)c2cc3c(s2)CCCC3)CC1", "note": "(stereo unspecified)", "values": [
      {"measurement": "CC50", "setting": "[12]", "result": "> 40 µM (active)"},
      {"measurement": "IC50", "setting": "Major prion protein", "result": "4.39 µM (active)"},
      {"measurement": "IC50", "setting": "cells", "result": "> 138 µM (inactive)"}
    ]},
    {"compound": "COCCNc1nc2nonc2nc1N(C)Cc1cccc2cnccc12", "values": [
      {"measurement": "EC50", "setting": "[13]", "result": "0.22 µM (not active)"}
    ]},
    {"compound": "Cc1nn(CCc2nnn[nH]2)c2nc(C(F)(F)F)cc(C(F)(F)F)c12", "values": [
      {"measurement": "EC50", "setting": "Kallikrein-7", "result": "> 69.5 µM (inactive)"}
    ]},
    {"compound": "CCOc1cc(C2NC(=O)NC(C)=C2C(=O)OCc2ccccc2)ccc1O", "note": "(stereo unspecified)", "values": [
      {"measurement": "IC50", "setting": "[14]", "result": "34.6 µM (not active)"}
    ]},
    {"compound": "COc1cc2cc(Br)cc(Br)c2nc1C", "values": [
      {"measurement": "IC50", "setting": "Major prion protein", "result": "4.51 µM (active)"},
      {"measurement": "IC50", "setting": "cells", "result": "> 138 µM (inactive)"}
    ]},
    {"compound": "Cc1ccc(NC(=O)COc2ccc(-n3cnnn3)cc2)cc1C", "values": [
      {"measurement": "IC50", "setting": "Estrogen receptor beta [15]", "result": "> 50 µM (not active)"},
      {"measurement": "IC50", "setting": "Estrogen receptor beta [16]", "result": "< 0.023 µM (not active)"}
    ]}
  ]
}
